The values below come from ChEMBL document CHEMBL3507680, “University of Dundee, Gates Library screen for HepG2 cell viability”.

The nature of this series: Human HepG2 cell viability assay in 384 well format. The format is toxicity, cell-based. Also on record: dose 125 nL, time 70.5 hour; concentration not given beside the values. Conditions: HepG2 cells, read-out: Inhibition.
As to `COc1ccc(-c2csc(N)c2C#N)cc1OC`, the cytotoxicity at 70.5 h was -13%.

As to `O=C(Cn1ccc2c(Cl)cccc21)N1CCC2(CC1)OCCO2`, the cytotoxicity at 70.5 h is -4.3%.

For `CC(NC(=O)N1CCN(c2ccc(Cl)cc2)CC1)C(=O)N1CCSCC1` (configuration not stated), the cytotoxicity at 70.5 h was -12.6%.

`O=C(Cn1cc(-c2ccccc2)ncc1=O)Nc1ccncc1`: the cytotoxicity at 70.5 h was -13.4%.

`CC(C)C(NC(=O)N1CCN(c2ccc(Cl)cc2)CC1)C(=O)NC1CC1` (configuration not stated): the cytotoxicity at 70.5 h is -6.65%.

`O=C1CC(c2ccsc2)c2sc(C(=O)O)c(-c3ccccc3)c2N1` (configuration not stated): the cytotoxicity at 70.5 h was -11.4%.

For the compound `Cc1[nH]/c(=N\C(=O)c2csc(NC3CC3)n2)sc1C`, the cytotoxicity at 70.5 h is -5.91%.

As for `CCOc1ccc(Cl)cc1CNCCCn1ccnc1`, the cytotoxicity at 70.5 h was 23.2%.

For the compound `CCOc1cccc(CNc2ccccc2C(=O)OC)c1O`, the cytotoxicity at 70.5 h came to 3.64%.

In the case of `O=S(=O)(NC1=NCN(CCc2cccs2)CN1)c1ccc(F)cc1`, the cytotoxicity at 70.5 h is -20.8%.

Take `CCCNC(=O)c1cc2c([nH]c1=O)CC(c1cccs1)CC2=O` (configuration not stated): the cytotoxicity at 70.5 h is -19.4%.

For the compound `Cc1cccc(N2Cc3nc(=O)[nH]n3C2=O)c1`, the cytotoxicity at 70.5 h was -14.3%.

Regarding `Cc1c(C)n(-c2ccccn2)c2nc3c(c(N)c12)CCCC3`, the cytotoxicity at 70.5 h was -9.17%.

For the compound `O=C1N(c2ccccc2)Cc2nc(=O)[nH]n21`, the cytotoxicity at 70.5 h is -27.8%.

`CNc1oc(-c2ccc(OC)c(S(=O)(=O)N3CCCCC3)c2)nc1C#N`: the cytotoxicity at 70.5 h was -18%.

On to `CSCCC(CO)NC(=O)c1sc(-c2ccccc2Cl)nc1C` (configuration not stated), for which the cytotoxicity at 70.5 h is -23.9%.

In the case of `CC(C)c1nnc2ccc(N3CCC(C(N)=O)CC3)nn12`, the cytotoxicity at 70.5 h is 3.97%.

For the compound `O=C(Cc1csc(-c2ccc(Cl)cc2)n1)NC(C(=O)O)c1ccccc1` (configuration not stated), the cytotoxicity at 70.5 h was -9.96%.

Consider `COc1ccc(N2CCC(C(=O)/N=c3/[nH]ccs3)CC2)nn1`, for which the cytotoxicity at 70.5 h is -7.23%.

With `CNc1oc(-c2cc(S(=O)(=O)N3CCCCCC3)c(C)o2)nc1C#N`, the cytotoxicity at 70.5 h is -20.9%.

Consider `COC(=O)CNC(=O)CSCc1nc(O)c2cc(C(C)C)sc2n1`, for which the cytotoxicity at 70.5 h is -14.3%.

`CCOC(=O)N1CCN(c2nc(NC)c3ccccc3n2)CC1`: the cytotoxicity at 70.5 h was -15.5%.

For the compound `Cc1ccc(-c2csc(N)c2C#N)cc1`, the cytotoxicity at 70.5 h was -16.3%.

Consider `Cc1ccc(CNS(=O)(=O)CC2=NC(=O)n3cccc3C2=O)cc1`, for which the cytotoxicity at 70.5 h was -10.8%.

In the case of `CCOc1ccc(-n2nnc(C(=O)O)c2-c2ccncc2)cc1`, the cytotoxicity at 70.5 h turned out to be 12.9%.

On to `Cc1cc2nc(SCC(=O)N3CCCC3)n(-c3ccccc3)c(=O)c2[nH]1`, for which the cytotoxicity at 70.5 h is -21.9%.

Take `Cc1ccc(F)c(-n2nnc(C(=O)O)c2-c2ccncc2)c1`: the cytotoxicity at 70.5 h was -5.82%.

`CCOc1ccc(-n2nnc(C(=O)O)c2-c2ccccn2)cc1`: the cytotoxicity at 70.5 h was -11.9%.

For `CCN(c1ccc(C(=O)NCCCN2CCCC2)cc1)S(=O)(=O)CC`, the cytotoxicity at 70.5 h is -8.8%.

Turning to `CC(C)n1c(=O)nc2n1C(=O)N(c1ccc(F)cc1)C2`, the cytotoxicity at 70.5 h was -10.1%.

Turning to `O=C(COc1coc(CN2CCCCC2)cc1=O)NCc1ccccc1`, the cytotoxicity at 70.5 h was -15.4%.

Regarding `COc1cccc2ccn(CCC(=O)N3CCCC(C(=O)O)C3)c12` (configuration not stated), the cytotoxicity at 70.5 h was -22.2%.

`CNc1nc2c(s1)C(c1c(F)cccc1Cl)CC(=O)N2` (configuration not stated): the cytotoxicity at 70.5 h is -6.14%.

For `Nc1cc(-c2c[nH]nc2C2CCCN2CCCc2ccccc2)ccn1` (configuration not stated), the cytotoxicity at 70.5 h is -1.57%.

Consider `CCn1nccc1CN(C)C(=O)Cn1nc(C)c(C)c1C`, for which the cytotoxicity at 70.5 h is -4.43%.

For `CC(C)Nc1nc(O)cc(C(C)n2ncc3ccccc3c2=O)n1` (configuration not stated), the cytotoxicity at 70.5 h was -5.33%.

On to `CCN(CC)c1nc(O)cc(C(C)n2ncc3ccccc3c2=O)n1` (configuration not stated), for which the cytotoxicity at 70.5 h is -4.03%.

As to `Cc1cc(C(F)(F)F)nc(C2COCCN2S(C)(=O)=O)n1` (configuration not stated), the cytotoxicity at 70.5 h is -6.03%.

`CC(C)N1CC(C(=O)NCc2ccc(S(=O)(=O)N(C)C)cc2)CC1=O` (configuration not stated): the cytotoxicity at 70.5 h was -7.28%.

Turning to `CNc1cccc(CC2COCCN(C(=O)c3cncs3)C2)n1` (configuration not stated), the cytotoxicity at 70.5 h was found to be 1.43%.

Regarding `Cc1ccc(C2CCCN(S(=O)(=O)N3CCOCC3)C2)nc1` (configuration not stated), the cytotoxicity at 70.5 h is -4.54%.

With `Cc1nc(NCC2CCOCC2)cc(C2CCN2S(C)(=O)=O)n1` (configuration not stated), the cytotoxicity at 70.5 h is -1.73%.

For the compound `CN(CC1(C)COC1)C(=O)c1cc(-c2ccnn2C)nc2ccccc12`, the cytotoxicity at 70.5 h is -0.845%.

Take `Cn1cc(CN2CCC(c3cc(CCO)[nH]n3)C2)cn1` (configuration not stated): the cytotoxicity at 70.5 h is -8.16%.

In the case of `Cc1cc(C)nc(C2CCN(C(=O)CO)CC2)n1`, the cytotoxicity at 70.5 h is -6.07%.

On to `CO[C@@H]1CC[C@@H](N(C)C(=O)c2cn3cc(C)ccc3n2)[C@H]1O`, for which the cytotoxicity at 70.5 h was -9%.

As for `O=C(O)c1cccc(CN2CCCC(c3ccn[nH]3)C2)c1` (configuration not stated), the cytotoxicity at 70.5 h was -4.41%.

Turning to `CC1(C(=O)N2CCN(c3ncccn3)CC2)CNCCO1` (configuration not stated), the cytotoxicity at 70.5 h was -8.07%.

For the compound `O=C(O)c1ccccc1CN1CCCC(Cc2ccn[nH]2)C1` (configuration not stated), the cytotoxicity at 70.5 h is -8.52%.

For the compound `CSc1nsc(NC(=O)c2cc(C3CC3)nn2C)n1`, the cytotoxicity at 70.5 h was -6.09%.

Turning to `CCCc1cc(C(=O)Nc2nc(SC)ns2)n(C)n1`, the cytotoxicity at 70.5 h is -13.2%.

As for `O=C(O)c1cccc(CN2CCCC(Cc3ccn[nH]3)C2)c1` (configuration not stated), the cytotoxicity at 70.5 h was -10.2%.

For the compound `CN1CCC(c2nnc3n2CCN(S(=O)(=O)c2ccccc2Cl)C3)CC1`, the cytotoxicity at 70.5 h was -5.89%.

As to `CC(C)Nc1nc(O)cc(C2CC(=O)N(C3CCCCC3)C2)n1` (configuration not stated), the cytotoxicity at 70.5 h was -3.62%.

For the compound `COCCC(=O)NCCc1nc(N(C)C)ncc1-c1ccncc1`, the cytotoxicity at 70.5 h was -3.62%.

Take `Cc1noc(C)c1C(=O)N1CCC2(CCc3ccccc3C(=O)N2)C1` (configuration not stated): the cytotoxicity at 70.5 h is -4.04%.

On to `O=C(C1CCCCC1)N1CCCC([C@@H]2C[C@H](C(F)F)n3ncnc3N2)C1` (some centres not stated), for which the cytotoxicity at 70.5 h is -5.82%.

As for `Cc1cnc(-c2nc(C3CCN(Cc4ccccc4O)CC3)no2)cn1`, the cytotoxicity at 70.5 h is -4.91%.

For the compound `Cc1cnc(-c2nc(C3CCN(Cc4ccccc4Cl)CC3)no2)cn1`, the cytotoxicity at 70.5 h is -3.18%.

For the compound `CS(=O)(=O)c1cc(Cl)cnc1C1CCN(C(=O)C2CCOCC2)CC1`, the cytotoxicity at 70.5 h worked out at 9.7%.

Consider `Cc1nc[nH]c1CN(Cc1ccc(F)cc1)C1CC(C)(C)NC(C)(C)C1`, for which the cytotoxicity at 70.5 h is -2.59%.

In the case of `Cn1cc(C2=NOC(C(=O)NC3(c4ccccc4F)CCCC3)C2)cn1` (configuration not stated), the cytotoxicity at 70.5 h stood at 12.6%.

On to `CS(=O)(=O)c1cc(Cl)cnc1C1CCN(C(=O)C2CC2)CC1`, for which the cytotoxicity at 70.5 h was -0.478%.

For `Cc1ccc(S(=O)(=O)N2CC[C@@H]3C[C@H](NC(=O)c4ccncc4)[C@@H]32)cc1`, the cytotoxicity at 70.5 h is -2.83%.

As to `Cc1ccc(S(=O)(=O)N2CC[C@@H]3C[C@H](NC(=O)c4[nH]ncc4Br)[C@@H]32)cc1`, the cytotoxicity at 70.5 h is -5.6%.

For the compound `Cc1nn(C)cc1S(=O)(=O)NCC(c1ccccc1Cl)N1CCCC1` (configuration not stated), the cytotoxicity at 70.5 h is -6.74%.

Consider `COc1ccc(CC(=O)N2CCN(Cc3ccco3)C[C@H]2C)cc1OC`, for which the cytotoxicity at 70.5 h was -5.07%.

Consider `CCCn1cc(Cl)c(C(=O)N2C[C@H]3C[C@H](OC)C[C@H]3C2)n1`, for which the cytotoxicity at 70.5 h is 3.23%.

For `CCn1ncc(S(=O)(=O)N[C@@H]2CCC[C@@H](n3ccnc3)[C@@H]2O)c1C`, the cytotoxicity at 70.5 h is -2.3%.

As for `CC(=O)NCC(=O)NCC1(O)CCN(c2cnccn2)C1` (configuration not stated), the cytotoxicity at 70.5 h is 15.9%.

On to `Cc1nc(-c2c(C)noc2C)cc(C2CCN(CC(=O)N(C)C)CC2)n1`, for which the cytotoxicity at 70.5 h stood at 5.85%.

As to `Cc1noc(C)c1-c1cccc(C2CCN(CC(=O)N(C)C)CC2)n1`, the cytotoxicity at 70.5 h is -2.68%.

`O=C(c1cncs1)N1CCOCC(Cc2ccccn2)C1` (configuration not stated): the cytotoxicity at 70.5 h was -2.59%.

Take `Cc1ccc2nc(C(=O)N(C)[C@@H]3CC[C@@H](N4CCCC4)[C@@H]3O)cn2c1`: the cytotoxicity at 70.5 h was -3.38%.

With `CC(C)c1ccc(CC2(C)Cc3cc(CC(=O)O)ccc3O2)cc1` (configuration not stated), the cytotoxicity at 70.5 h is 17.5%.

Turning to `c1cc(CN2CCC(c3ccnc4nccn34)C2)ccn1` (configuration not stated), the cytotoxicity at 70.5 h was -1.62%.

With `CO[C@H]1C[C@@H]2CN(C(=O)c3ccc(C)s3)C[C@@H]2C1`, the cytotoxicity at 70.5 h is -4.22%.

In the case of `NC(=O)c1cnn2c(C3CCCN(C4CCOCC4)C3)ccnc12` (configuration not stated), the cytotoxicity at 70.5 h is -0.336%.

On to `NC(=O)c1cnn2c(C3CCN(CCO)CC3)ccnc12`, for which the cytotoxicity at 70.5 h was -3.75%.

On to `Cc1cc(N(C)C)cc(C2CCN(S(=O)(=O)c3cccs3)C2)n1` (configuration not stated), for which the cytotoxicity at 70.5 h is 14.4%.

With `Cc1cc(N(C)C)cc(C2CCN(S(=O)(=O)c3cccnc3)C2)n1` (configuration not stated), the cytotoxicity at 70.5 h amounted to 1.07%.

On to `Cn1ncc2ccc(C3CCCN(Cc4ccsc4)C3)nc21` (configuration not stated), for which the cytotoxicity at 70.5 h was 7.16%.

For `Nc1nc(N)c2c(n1)OC1(CCN(C(=O)CC3CCNCC3)CC1)C2`, the cytotoxicity at 70.5 h came out at 8.24%.

On to `Nc1nc(N)c2c(n1)OC1(CCN(C(=O)CC3CCCNC3)CC1)C2` (configuration not stated), for which the cytotoxicity at 70.5 h came out at 1.11%.

Regarding `CC1(c2[nH]ncc2C(N)=O)CCN(c2ncccn2)CC1`, the cytotoxicity at 70.5 h was found to be 17.1%.

In the case of `COc1ccc(CN(C)[C@@H]2CN(S(=O)(=O)C(C)C)C[C@H]2O)cc1`, the cytotoxicity at 70.5 h is -2.64%.

As for `CNc1cncc(C2CCCN2C(=O)CCn2ccnc2C(C)C)n1` (configuration not stated), the cytotoxicity at 70.5 h is -3%.

On to `CCS(=O)(=O)N1C[C@@H](O)[C@H](N(C)Cc2ccc(F)cc2)C1`, for which the cytotoxicity at 70.5 h is 0.693%.

For `CN(Cc1ccc(F)cc1)[C@@H]1CN(S(=O)(=O)N(C)C)C[C@H]1O`, the cytotoxicity at 70.5 h was -0.678%.

As to `Cn1ncc2ccc(C3CCCN(Cc4cccs4)C3)nc21` (configuration not stated), the cytotoxicity at 70.5 h is -0.364%.

On to `Cc1c(S(=O)(=O)N2CCCCC2c2nnc(-c3cccs3)o2)cnn1C` (configuration not stated), for which the cytotoxicity at 70.5 h is -2.57%.

Turning to `CC(CNCc1ccncc1)Oc1ccccn1` (configuration not stated), the cytotoxicity at 70.5 h is -12.5%.

As for `CCOC(=O)N1CCN(c2nc(NCCCO)c3ccccc3n2)CC1`, the cytotoxicity at 70.5 h was -21.9%.

With `CC(O)CNCc1ccc(OCc2ccc3c(c2)OCCO3)cc1` (configuration not stated), the cytotoxicity at 70.5 h stood at 19.4%.

Consider `CCn1c(CN2CCCC(O)(c3ccc(F)cc3)CC2)cnc1SC` (configuration not stated), for which the cytotoxicity at 70.5 h was -5.35%.

Take `CCn1c(CN2CCC(O)(c3ccc4c(c3)OCO4)CC2)cnc1SC`: the cytotoxicity at 70.5 h was 1.92%.

For `COc1ccc(C2C3=C(COC3=O)Nc3[nH]nc(C)c32)cc1OC` (configuration not stated), the cytotoxicity at 70.5 h is -22.8%.
